# From US8551526B2, “Preparation of drug particles using evaporation precipitation into aqueous solutions” (Board of Regents, The University of Texas System, priority 2000, dated 2013)
# Several values for one entry are separate records, joined by “and”; a condition that tells them apart may be missing. Equal entries are not always repeated.
# Key:
# Format in all cases: physicochemical
# [1] = Particle size distribution by static light scattering (Malvern Mastersizer-S) and redispersibility; settings: after centrifugation and vacuum drying
# Text: The organic danazol solution was fed by an HPLC pump through a 3 m long 1/16 in. o.d.×0.030 in. i.d. stainless steel coiled tube contained within a 1½″ OD×24″ long plastic water jacket (Alltech). Water was circulated through the jacket with a JULABO MP temperature controller. The organic solution was atomized through an unheated insulated adjustable restrictor (5 mm dia.×136 mm long, ISCO, USA) into hot water. Atomization was achieved by adjusting the nozzle valve manually to maintain a pressure drop to about 3500 psi. The aqueous stabilizing solution was contained in a 250 ml plastic submerged in a temperature-controlled water bath. The nozzle was submerged approximately 10 cm under the surface of the aqueous solution. […] After spraying for a required time to produce the desired drug/excipient ratio, the suspension was recovered and analyzed within 30 mins to determine the particle size by light scattering with a Malvern Mastersizer-S (Malvern Instruments Ltd., U. K.).
# Two percent (2%) w/v danazol solution in dichloromethane was sprayed at a flow rate of 1 ml/min into 100 ml aqueous solution containing 1% w/v excipient or a excipient mixture at 1:1 w/w ratio, if two surfactants were used, to stabilize the drug particles. […] The surface area of the dry powders was measured with a high-speed surface area BET analyzer (NOVA 2000, Quantachrome Instruments, USA). […]
# [2] = X-ray diffraction of danazol dry powders
# Experimental: (§1) Two percent (2%) w/v danazol solution in dichloromethane was sprayed at a flow rate of 1 ml/min into 100 ml aqueous solution containing 1% w/v excipient or a excipient mixture at 1:1 w/w ratio, if two surfactants were used, to stabilize the drug particles. The temperatures of both heating jacket and water bath were 80° C. and the pressure drop was 3500-4000 psi. After 25 minutes spray, a suspension with drug to excipient ratio of 0.5 was recovered and the particle size of the danazol particles was measured with Malvern Mastersizer-S. The suspensions were centrifuged (BECKMAN, Model TJ-6, USA) at 3000 rpm for 30 mins. The supernatants were poured out and the precipitates were placed into a vacuum oven and dried at 40° C., and −30 in Hg for 3-4 hrs. The crystallinity of the dry powders was examined by x-ray diffraction (PW1720, PHILIPS). The surface area of the dry powders was measured with a high-speed surface area BET analyzer (NOVA 2000, Quantachrome Instruments, USA).
# X-ray diffraction was used to analyze the crystallinity of the dry powders. […] The a-peak heights of danazol in different excipient systems at 2θ=15° are listed in Table N. The reduction in crystallinity was less than 20% after correction for the presence of 10% w/w excipient. It was assumed that the danazol peak height was linear in concentration for a fixed weight. […]
# [3] = BET surface area of danazol dry powders
# Experimental: as §1
# [4] = Contact angle of water on compressed dry powder tablet; settings: distilled water drop on compressed tablet
# Experimental: […] was filled into a 0.7 cm diameter flat faced die and compressed with a Carver Laboratory Press (Model M, Fred S. Carver Inc, WIS, USA) at 1500 kgf into a tablet. A drop of […] distilled water was placed on the surface of the tablet and contact angle was measured from the tangential angle of the water drop with help of a camera (Panasonic WV-1410, Philippines).
smiles,measurement,setting,value
"C#C[C@]1(O)CC[C@H]2[C@@H]3CCC4=Cc5oncc5C[C@]4(C)[C@H]3CC[C@@]21C [Bulk danazol, danazol]","D (v, 0.5) redispersed dry powders",[1]; cell marked (30s),21.07 (30s) μm
same,"D (v, 0.5) redispersed dry powders w/o ultrasonic",[1]; redispersed in distilled water,29.63 μm
same,Peak height of danazol x-ray diffraction at 2θ = 15°,[2],3182 counts
same,Surface Area of the dry powder,[3],0.52 m^2/g
same,Contact angle of dry powder after centrifugation and drying,[4],61.5 ° and 61.0 °
